These results are taken from patent US11927585B2, “Solvent-based inks and coatings for food contact applications” (SUN CHEMICAL CORPORATION, priority 2020, dated 2024).

The nature of data set [1]: Specific migration limit (SML) from regulation or hazard assessment (TTC, VEGA QSAR, Cramer Class). The following applies: for SML (or restriction): Source of SML or restriction: HA (internal hazard assessment); for SML or Restriction (mg substance/kg food): source HA (internal hazard assessment), self-derived SML, EU Cube model.
The nature of data set [2]: Worst-case calculation, Application 1 yoghurt pot lid exposure scenario. The following applies: 100% migration, 2.0 g/m^2 dry film.
A short description of data set [3]: Worst-case calculation (100% migration), standard EU Cube exposure model. To be noted: for Worst-case calculation as a percentage of SML (or restriction), EU Cube / Worst Case Calculation of migration in EU Cube model (as a percentage of SML): 100% migration; for Worst-case calculation as a percentage of SML (or restriction), EU Cube: 2.0 g/m^2 dry film; for Worst Case Calculation of migration in EU Cube model (as a percentage of SML): dry coat weight 2.0 g/m^2.

The nature of data set [4]: Worst-case calculation, Application 2 cheese packaging wrap exposure scenario. To be noted: 100% migration, 2.0 g/m^2 dry film.
[5] abbreviates: substance in ink SBDEV977 (Ex. 4A Yellow).
The mark [6] stands for this setting: substance in ink SBDEV976 (Ex. 4C Cyan).
[7] abbreviates: substance in ink SBDEV980 (Ex. 4B Red).

For `c1ccc(-c2ccc(-c3nc(-c4ccc(-c5ccccc5)cc4)nc(-c4ccc(-c5ccccc5)cc4)n3)cc2)cc1` [1,3,5-Triazine, 2,4,6-Tris([1,1′-Biphenyl]-4-Yl)-], the “SML (or restriction)” value in data set [1] is recorded as 5 mg substance/kg food.

In the case of `CCCC1OC(CCC)OC(CCC)O1` (stereo not shown) [2,4,6-tripropyl-1,3,5-Trioxane], the “SML (or restriction)” value in data set [1] was found to be 0.09 mg substance/kg food.

Regarding `O=C1NCCN1` [2-Imidazolidinone], in data set [1], the “SML (or restriction)” value was determined as 4.98 mg substance/kg food.

Take `O=Cc1ccc(Cl)cc1` [4-Chlorobenzaldehyde]: the “SML (or restriction)” value in data set [1] was 0.09 mg substance/kg food.

Regarding `O=Cc1ccc(-c2ccccc2)cc1` [4-Phenylbenzaldehyde], the “SML (or restriction)” value in data set [1] worked out at 0.09 mg substance/kg food.

Turning to `NC(=O)c1ccc(-c2ccccc2)cc1` [4-Phenylbenzamide], the “SML (or restriction)” value in data set [1] was 0.09 mg substance/kg food.

As for `O=C(O)c1ccc(-c2ccccc2)cc1` [4-Phenylbenzoic Acid], in data set [1], the “SML (or restriction)” value came to 0.09 mg substance/kg food.

On to `N#Cc1ccc(-c2ccccc2)cc1` [4-Phenylbenzonitrile], for which the “SML (or restriction)” value in data set [1] is given as 0.09 mg substance/kg food.

`O=C1NC(=O)c2ccccc21` [0000085-41-6, Phthalimide]: the entries for the “Worst-case calculation as a percentage of SML (or restriction), Application 1” value in data set [2] (product SBDEV977) and in data set [2] (product SBDEV1287) were 377.6 percentage of SML (or restriction) and 373.7 percentage of SML (or restriction), respectively. The “Worst-case calculation as a percentage of SML (or restriction), EU Cube” value (shortened to “Worst-case calculation as a percentage … EU Cube”) is reported as 960 percentage of SML (or restriction) in data set [3] (product SBDEV977) and 950 percentage of SML (or restriction) in data set [3] (product SBDEV1287). Also, the “Worst Case Calculation of migration in EU Cube model (as a percentage of SML)” value in data set [3] (setting [5]) is reported as 960 percentage of SML. The results for the “Worst-case calculation as a percentage of SML (or restriction), Application 2” value in data set [4] (product SBDEV977) and in data set [4] (product SBDEV1287) were 1382.4 percentage of SML (or restriction) and 1368.0 percentage of SML (or restriction), respectively. Besides, the “SML or Restriction (mg substance/kg food)” value (“SML or Restriction” below) in data set [1] turned out to be 0.09 mg substance/kg food.

In the case of `c1ccc2ccccc2c1` [0000091-20-3, Naphthalene], the “Worst-case calculation as a percentage of SML (or restriction), Application 1” value in data set [2] (product SBDEV976) and in data set [2] (product SBDEV1286) was 0.2 percentage of SML (or restriction) throughout. In addition, the “Worst-case calculation as a percentage … EU Cube” value in data set [3] (product SBDEV976) and in data set [3] (product SBDEV1286) was 0.4 percentage of SML (or restriction) each time. Further, the “Worst Case Calculation of migration in EU Cube model (as a percentage of SML)” value in data set [3] (setting [6]) is on record as 0.4 percentage of SML. Further, the “Worst-case calculation as a percentage of SML (or restriction), Application 2” value in data set [4] (product SBDEV976) and in data set [4] (product SBDEV1286) was 0.6 percentage of SML (or restriction) in each case.

For `O=C(O)c1ccc(-c2ccccc2)cc1` [0000092-92-2, 4-Phenylbenzoic Acid], the “Worst-case calculation as a percentage of SML (or restriction), Application 1” value in data set [2] (product SBDEV980) and in data set [2] (product SBDEV1285) was 2.8 percentage of SML (or restriction) in each case. In addition, the “Worst-case calculation as a percentage … EU Cube” value in data set [3] (product SBDEV980) and in data set [3] (product SBDEV1285) was 7 percentage of SML (or restriction) in each case. Also, in data set [3] (setting [7]), the “Worst Case Calculation of migration in EU Cube model (as a percentage of SML)” value is on record as 7 percentage of SML. Moreover, the “Worst-case calculation as a percentage of SML (or restriction), Application 2” value in data set [4] (product SBDEV980) and in data set [4] (product SBDEV1285) was 10.1 percentage of SML (or restriction) in each case. For the same molecule, the “SML or Restriction” value in data set [1] is on record as 0.09 mg substance/kg food.

As for `CCCCCCCC/C=C\CCCCCCCC(=O)N(CCO)CCO` [0000093-83-4, N,N-Bis(2-hydroxyethyl) oleamide], the “Worst-case calculation as a percentage of SML (or restriction), Application 1” value in data set [2] (product SBDEV977) is reported as 27.1 percentage of SML (or restriction); in data set [2] (product SBDEV1287), 26.7 percentage of SML (or restriction). The results for the “Worst-case calculation as a percentage … EU Cube” value in data set [3] (product SBDEV977) and in data set [3] (product SBDEV1287) were 69 percentage of SML (or restriction) and 68 percentage of SML (or restriction), respectively. The “Worst Case Calculation of migration in EU Cube model (as a percentage of SML)” value in data set [3] (setting [5]) is 69 percentage of SML. The “Worst-case calculation as a percentage of SML (or restriction), Application 2” value was 99.4 percentage of SML (or restriction) in data set [4] (product SBDEV977) and 97.9 percentage of SML (or restriction) in data set [4] (product SBDEV1287). Also, the “SML or Restriction” value in data set [1] is on record as 0.09 mg substance/kg food.

`O=Cc1ccc(Cl)cc1` [0000104-88-1, 4-Chlorobenzaldehyde]: the “Worst-case calculation as a percentage of SML (or restriction), Application 1” value in data set [2] (product SBDEV980) and in data set [2] (product SBDEV1285) was 5.5 percentage of SML (or restriction) throughout. Further, the “Worst-case calculation as a percentage … EU Cube” value in data set [3] (product SBDEV980) and in data set [3] (product SBDEV1285) was 14 percentage of SML (or restriction) each time. For the same molecule, in data set [3] (setting [7]), the “Worst Case Calculation of migration in EU Cube model (as a percentage of SML)” value is 14 percentage of SML. Besides, the “Worst-case calculation as a percentage of SML (or restriction), Application 2” value in data set [4] (product SBDEV980) and in data set [4] (product SBDEV1285) was 20.2 percentage of SML (or restriction) each time. Further, the “SML or Restriction” value in data set [1] was found to be 0.09 mg substance/kg food.

With `OCCNCCO` [0000111-42-2, Diethanolamine], the “Worst Case Calculation of migration in EU Cube model: Basis for Safety outcome” value in data set [3] (substance in ink SBDEV977 (Ex. 4A Yellow), volatile substance) is recorded as “Converter”.

As to `CCCCCCCC/C=C\CCCCCCCC(=O)OCC` [0000111-62-6, Ethyl Oleate], the “Worst-case calculation as a percentage of SML (or restriction), Application 1” value in data set [2] (product SBDEV976) was 9.42 percentage of SML (or restriction); in data set [2] (product SBDEV977) it was 9.42 percentage of SML (or restriction); in data set [2] (product SBDEV979) it was 8.92 percentage of SML (or restriction); in data set [2] (product SBDEV980), 9.45 percentage of SML (or restriction); in data set [2] (product SBDEV1284), 8.91 percentage of SML (or restriction); in data set [2] (product SBDEV1285) it was 8.91 percentage of SML (or restriction). Besides, the “Worst-case calculation as a percentage of SML (or restriction), Application 1” value in data set [2] (product SBDEV1286) and in data set [2] (product SBDEV1287) was 8.91 percentage of SML (or restriction) each time. Moreover, the “Worst-case calculation as a percentage … EU Cube” value is 24.0 percentage of SML (or restriction) in data set [3] (product SBDEV976); 24.0 percentage of SML (or restriction) in data set [3] (product SBDEV977); 22.7 percentage of SML (or restriction) in data set [3] (product SBDEV979); 24.0 percentage of SML (or restriction) in data set [3] (product SBDEV980); 22.7 percentage of SML (or restriction) in data set [3] (product SBDEV1284); 22.7 percentage of SML (or restriction) in data set [3] (product SBDEV1285). The “Worst-case calculation as a percentage … EU Cube” value in data set [3] (product SBDEV1286) and in data set [3] (product SBDEV1287) was 22.7 percentage of SML (or restriction) each time. Further, the “Worst Case Calculation of migration in EU Cube model (as a percentage of SML)” value is on record as 24.0 percentage of SML in data set [3] (setting [6]), 24 percentage of SML in data set [3] (setting [5]), 22.2 percentage of SML in data set [3] (substance in ink SBDEV979 (Ex. 4D Black)) and 24.0 percentage of SML in data set [3] (setting [7]). For the same molecule, the “Worst-case calculation as a percentage of SML (or restriction), Application 2” value in data set [4] (product SBDEV976) is 34.6 percentage of SML (or restriction); in data set [4] (product SBDEV977), 34.6 percentage of SML (or restriction); in data set [4] (product SBDEV979), 32.7 percentage of SML (or restriction); in data set [4] (product SBDEV980), 34.5 percentage of SML (or restriction); in data set [4] (product SBDEV1284), 32.68 percentage of SML (or restriction); in data set [4] (product SBDEV1285), 32.68 percentage of SML (or restriction). Also, the “Worst-case calculation as a percentage of SML (or restriction), Application 2” value in data set [4] (product SBDEV1286) and in data set [4] (product SBDEV1287) was 32.68 percentage of SML (or restriction) each time. Moreover, the “SML or Restriction” value in data set [1] stood at 0.09 mg substance/kg food.

For the molecule `O=Cc1ccc(-c2ccccc2)cc1` [0003218-36-8, 4-Phenylbenzaldehyde], the “SML or Restriction” value in data set [1] came out at 0.09 mg substance/kg food.

Turning to `CCCOC(CC)OCCC` [0004744-11-0, Propane, 1,1-dipropoxy-], the “SML or Restriction” value in data set [1] came out at 0.09 mg substance/kg food.

As for `O=C1NC(=O)C(=C2NC(=O)c3ccccc32)C(=O)N1` [0013481-50-0, 2,4,6(1H,3H,5H)-Pyrimidinetrione, 5-(2,3-Dihydro-3-Oxo-1H-Isoindol-1-Ylidene)-], the “SML or Restriction” value in data set [1] amounted to 0.09 mg substance/kg food.

Turning to `CCCCCCCC/C=C\CCCCCCCC(=O)OCC` [Ethyl Oleate], the “SML (or restriction)” value in data set [1] is 0.09 mg substance/kg food.

As to `CCCOC(CC)OCCC` [Propane, 1,1-dipropoxy-], the “SML (or restriction)” value in data set [1] came out at 0.09 mg substance/kg food.
